{"source": "patent US11851391B2", "about": "“Antifungal compounds and methods of forming the same” (University of Kentucky Research Foundation, priority 2018, dated 2023)", "key": {"[1]": {"test_system": "various yeast strains and filamentous fungi (strains A-M)", "test": "Antifungal activity over the whole panel (summary of MIC data)", "format": "cell-based, Candida and Aspergillus strains", "settings": "over the fungal strains tested, based on MIC data of Table 1", "outline": "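Yeasts (A–J) followed CLSI M27-A3 broth microdilution at 2–4×10^3 CFU/mL in RPMI 1640 with DMSO <1.25%. Aspergillus (K–M) followed CLSI M38-A2 with spores at 5×10^5 CFU/mL, 48 h at 35 °C. MIC is the lowest concentration giving complete growth inhibition (MIC-0), tested in triplicate.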"}, "[2]": {"target": "hERG channel (Homo sapiens, UniProt Q12809)", "sequence (Q12809 whole entry)": "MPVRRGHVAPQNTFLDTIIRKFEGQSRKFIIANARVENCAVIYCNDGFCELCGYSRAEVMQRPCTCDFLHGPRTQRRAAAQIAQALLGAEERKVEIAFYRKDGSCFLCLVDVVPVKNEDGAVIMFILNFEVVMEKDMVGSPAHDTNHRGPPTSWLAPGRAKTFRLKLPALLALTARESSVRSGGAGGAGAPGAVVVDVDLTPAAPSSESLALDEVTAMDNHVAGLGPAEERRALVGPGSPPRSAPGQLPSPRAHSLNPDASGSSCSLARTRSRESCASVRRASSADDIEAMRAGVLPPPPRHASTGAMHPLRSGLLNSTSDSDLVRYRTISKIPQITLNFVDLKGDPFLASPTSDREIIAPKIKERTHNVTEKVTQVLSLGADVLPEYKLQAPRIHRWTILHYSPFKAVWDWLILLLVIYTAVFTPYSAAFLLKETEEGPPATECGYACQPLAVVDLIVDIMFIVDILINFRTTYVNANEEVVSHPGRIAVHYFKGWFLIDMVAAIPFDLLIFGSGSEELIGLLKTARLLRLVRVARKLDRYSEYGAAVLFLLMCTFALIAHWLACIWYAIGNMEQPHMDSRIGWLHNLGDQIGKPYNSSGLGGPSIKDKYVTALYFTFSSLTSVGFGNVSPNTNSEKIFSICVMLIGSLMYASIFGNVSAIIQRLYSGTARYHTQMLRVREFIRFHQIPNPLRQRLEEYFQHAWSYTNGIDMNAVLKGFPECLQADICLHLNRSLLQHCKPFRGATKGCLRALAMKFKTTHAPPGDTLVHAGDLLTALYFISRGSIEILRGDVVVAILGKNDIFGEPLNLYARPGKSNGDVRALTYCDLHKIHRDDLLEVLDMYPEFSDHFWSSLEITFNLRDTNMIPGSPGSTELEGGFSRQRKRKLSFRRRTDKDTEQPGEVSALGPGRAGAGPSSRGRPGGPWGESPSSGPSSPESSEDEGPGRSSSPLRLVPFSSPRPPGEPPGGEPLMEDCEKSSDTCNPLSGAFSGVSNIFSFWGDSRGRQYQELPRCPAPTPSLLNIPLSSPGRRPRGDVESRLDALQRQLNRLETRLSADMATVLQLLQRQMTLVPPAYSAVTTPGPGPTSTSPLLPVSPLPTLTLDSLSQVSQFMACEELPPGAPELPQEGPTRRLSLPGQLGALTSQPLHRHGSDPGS", "test": "in vitro", "settings": "for IC50 at 60 min: human", "from_the_text": "The HEK-293 cell line stably expressing the hERG potassium channel (accession number U04270) referred to as hERG-HEK cells were received at passage 11 from Millipore (CYL3006, lot 2, Billerica, MA). [^3H]-Dofetilide (specific activity of 80 Ci/mmol; labeled on the N-methyl group) was obtained from American Radiolabeled Chemicals, St. Louis, MO Other chemicals and solvents were obtained from Sigma-Aldrich (Milwaukee, WI) with exceptions of polyethylenimine (PEI), which was obtained from Fluka/Sigma-Aldrich (St. Louis, MO), and Minimium Essential Medium (MEM) with GlutaMAX™ and phenol red, MEM non-essential amino acids solution (NEAA, 100×), G418 disulfate salt solution, fetal bovine serum (FBS), 0.05% Trypsin-EDTA 1× with phenol red, and Hank's balanced salt solution (HBSS), which were obtained from Life Technologies (Carlsbad, CA).\nThe hERG-HEK cells were cultured according to the protocol provided by Millipore. Cells were maintained in MEM (with GlutaMAX™ and phenol red) supplemented with 10% FBS, 1% NEAA and 400 μg/mL G418 disulfate salt, and incubated at 37° C. in a humidified atmosphere with 5% CO2. Frozen aliquots of cells were transferred into T-75 cm^2 flasks and allowed to adhere for 4-8 h. The medium was replaced every 2 days. Passages were carried out at least 3 times after thawing at 6-day intervals. Cells were dissociated with trypsin/EDTA and seeded into new 150×25 mm dishes at 2-3×10^6 cells per dish and placed at 30° C., 5% CO2, for 40-48 h prior to membrane preparation. Membrane preparation occurred 6 days after the last passage (passage 20).\nCell membrane preparation was based on previous methods. Cells were rinsed twice with HBSS at 37° C. and collected by scraping the dishes in ˜20 mL of ice-cold 0.32 M sucrose and homogenized on ice with a Teflon pestle using a Maximal Digital homogenizer (Fisher Scientific, Pittsburgh, PA) at ˜280 rpm for 30 sec. Homogenates were centrifuged at 300 g and 800 g for 4 min each at 4° C. Pellets were resuspended in 9 mL of ice-cold Milli-Q H2O and osmolarity restored by addition of 1 mL of 500 mM Tris buffer (pH 7.4) followed by suspension and centrifugation at 20,000 g for 30 min at 4° C. Pellets were homogenized in 2 mL assay buffer (50 mM Tris, 10 mM KCl, and 1 mM MgCl2, 4° C.) and aliquots of cell membrane suspensions were stored at −80° C. and thawed the day of the [^3H]-dofetilide binding assay. Protein content was determined prior to the assay using a Bradford protein assay with bovine albumin as the standard.\n[^3H]-Dofetilide binding assays using hERG-HEK293 cell membranes were based on previous methods. Assays determining concentration-response were conducted in duplicate, and three independent assays were performed for each analogue evaluated. Cell membrane suspension (5 μg) was added to duplicate tubes containing assay buffer, 25 μL of a single concentration of N,N-dialkylaminostilbene agent (FIDAS agent) (concentration range of 10 nM-100 μM for each experiment), and 25 μL of [^3H]-dofetilide (5 nM, final concentration) for an assay volume of 250 μL. Binding occurred for 60 min at 25° C. and was terminated by rapid filtration through Whatman GF/B filters, which were pre-soaked in 0.25% PEI overnight, using a Brandel cell/membrane harvester (M-48; Brandel Inc., Gaithersburg, MD). […] Radioactivity was determined by liquid scintillation spectrometry using the Tri-Carb 2100-TR Liquid Scintillation Analyzer (Perkin-Elmer Life and Analytical Sciences)."}}, "note": "“Also recorded” adds a separate entry of the source.", "data": [{"compound": "Fc1cccc(N/N=C/c2ccc(-c3cccc(/C=N/Nc4cccc(F)c4)c3)cc2)c1", "note": "[Compound 12a]", "values": [{"measurement": "antifungal activity (in words)", "setting": "[1]", "result": "good activity"}]}, {"compound": "COc1ccc(N/N=C/c2ccc(-c3cccc(/C=N/Nc4ccc(OC)cc4)c3)cc2)cc1", "note": "[Compound 15a]", "values": [{"measurement": "IC50 at 60 min", "setting": "[2]", "result": "> 30", "unit": "µM"}]}, {"compound": "COc1ccc(N/N=C/c2ccc(-c3ccc(/C=N/Nc4ccc(OC)cc4)cc3)cc2)cc1", "note": "[Compound 15b]", "values": [{"measurement": "antifungal activity (in words)", "setting": "[1]", "result": "good activity against the majority of the fungal strains tested"}, {"measurement": "IC50 at 60 min", "setting": "[2]", "result": "> 30", "unit": "µM"}]}, {"compound": "Fc1ccc(N/N=C/c2ccc(-c3cccc(/C=N/Nc4ccc(F)cc4)c3)cc2)cc1", "note": "[Compound 17a]", "values": [{"measurement": "antifungal activity (in words)", "setting": "[1]", "result": "good activity against the majority of the fungal strains tested"}, {"measurement": "IC50 at 60 min", "setting": "[2]", "result": "> 30", "unit": "µM"}]}, {"compound": "C/C(=N\\Nc1ccc(F)cc1)c1ccc(-c2ccc(/C(C)=N/Nc3ccc(F)cc3)cc2)cc1", "note": "[Compound 17c, 4,4′-bis((E)-1-(2-(4-fluorophenyl)hydrazono)ethyl)-1,1′-biphenyl]", "values": [{"measurement": "hERG inhibition (in words)", "setting": "[2]", "result": "no hERG inhibition"}, {"measurement": "IC50 at 60 min", "setting": "[2]", "result": "> 30", "unit": "µM"}]}, {"compound": "Fc1ccc(N/N=C/c2ccc(-c3cccc(/C=N/Nc4ccc(F)cc4F)c3)cc2)c(F)c1", "note": "[Compound 20a]", "values": [{"measurement": "antifungal activity (in words)", "setting": "[1]", "result": "overall antifungal activity against all the strains tested; also recorded: good activity against the majority of the fungal strains tested"}]}]}
